Results as given in ChEMBL document CHEMBL4507319 (2021).

Tests used:
[1] = target: Aurora kinase B (Homo sapiens) (UniProt Q96GD4); test: Aurora-B(h) Eurofins kinase panel; conditions: Compound concentration 1.0 uM
SU-DHL10 = test: SU-DHL-10 cell line Proliferation assay; format: functional, Homo sapiens; conditions: time 3 day
[2] = target: Tyrosine-protein kinase FRK (Homo sapiens) (UniProt P42685); test: PTK5(h) Eurofins kinase panel; conditions: Compound concentration 1.0 uM
[3] = target: Serine/threonine-protein kinase PAK 6 (Homo sapiens) (UniProt Q9NQU5); test: PAK6(h) Eurofins kinase panel; conditions: Compound concentration 1.0 uM
[4] = target: T1, Serine/threonine-protein kinase TAO3 (Homo sapiens) (UniProt Q9H2K8); test: TAO3(h) Eurofins kinase panel; conditions: Compound concentration 1.0 uM
T1 sequence (whole entry): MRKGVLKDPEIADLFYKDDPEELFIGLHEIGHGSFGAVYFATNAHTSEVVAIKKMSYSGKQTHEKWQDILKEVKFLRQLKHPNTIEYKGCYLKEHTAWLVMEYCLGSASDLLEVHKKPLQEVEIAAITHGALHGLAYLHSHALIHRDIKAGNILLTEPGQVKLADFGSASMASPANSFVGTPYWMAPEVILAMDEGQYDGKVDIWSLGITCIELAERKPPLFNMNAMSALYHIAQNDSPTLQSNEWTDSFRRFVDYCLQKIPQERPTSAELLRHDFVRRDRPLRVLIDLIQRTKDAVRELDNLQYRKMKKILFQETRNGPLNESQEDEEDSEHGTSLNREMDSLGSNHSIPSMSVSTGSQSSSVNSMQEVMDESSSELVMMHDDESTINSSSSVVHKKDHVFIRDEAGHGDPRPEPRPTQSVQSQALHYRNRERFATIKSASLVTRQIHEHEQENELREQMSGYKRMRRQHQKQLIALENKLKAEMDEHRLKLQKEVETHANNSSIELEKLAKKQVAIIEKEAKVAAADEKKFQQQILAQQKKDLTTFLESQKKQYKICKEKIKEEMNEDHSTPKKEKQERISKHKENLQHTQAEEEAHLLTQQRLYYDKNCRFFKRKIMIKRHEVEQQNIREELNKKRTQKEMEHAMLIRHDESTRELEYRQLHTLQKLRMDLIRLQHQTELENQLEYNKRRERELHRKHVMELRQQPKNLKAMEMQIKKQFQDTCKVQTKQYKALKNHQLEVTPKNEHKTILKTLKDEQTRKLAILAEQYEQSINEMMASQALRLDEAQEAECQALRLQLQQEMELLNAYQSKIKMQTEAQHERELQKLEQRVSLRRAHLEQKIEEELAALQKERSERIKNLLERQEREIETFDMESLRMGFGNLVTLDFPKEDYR

[5] = target: Tyrosine-protein kinase Fgr (Homo sapiens) (UniProt P09769); test: Fgr(h) Eurofins kinase panel; conditions: Compound concentration 1.0 uM
[6] = target: CDK7/Cyclin H/MNAT1 (Homo sapiens) (UniProt P51946+P50613+P51948); test: CDK7/cyclinH/MAT1(h) Eurofins kinase panel; format: protein-complex assay; conditions: Compound concentration 1.0 uM
[7] = target: Non-receptor tyrosine-protein kinase TYK2 (Homo sapiens) (UniProt P29597); test: TYK2(h) Eurofins kinase panel; conditions: Compound concentration 1.0 uM
[8] = target: T2, Ephrin type-A receptor 8 (Homo sapiens) (UniProt P29322); test: EphA8(h) Eurofins kinase panel; conditions: Compound concentration 1.0 uM
T2 sequence (whole entry): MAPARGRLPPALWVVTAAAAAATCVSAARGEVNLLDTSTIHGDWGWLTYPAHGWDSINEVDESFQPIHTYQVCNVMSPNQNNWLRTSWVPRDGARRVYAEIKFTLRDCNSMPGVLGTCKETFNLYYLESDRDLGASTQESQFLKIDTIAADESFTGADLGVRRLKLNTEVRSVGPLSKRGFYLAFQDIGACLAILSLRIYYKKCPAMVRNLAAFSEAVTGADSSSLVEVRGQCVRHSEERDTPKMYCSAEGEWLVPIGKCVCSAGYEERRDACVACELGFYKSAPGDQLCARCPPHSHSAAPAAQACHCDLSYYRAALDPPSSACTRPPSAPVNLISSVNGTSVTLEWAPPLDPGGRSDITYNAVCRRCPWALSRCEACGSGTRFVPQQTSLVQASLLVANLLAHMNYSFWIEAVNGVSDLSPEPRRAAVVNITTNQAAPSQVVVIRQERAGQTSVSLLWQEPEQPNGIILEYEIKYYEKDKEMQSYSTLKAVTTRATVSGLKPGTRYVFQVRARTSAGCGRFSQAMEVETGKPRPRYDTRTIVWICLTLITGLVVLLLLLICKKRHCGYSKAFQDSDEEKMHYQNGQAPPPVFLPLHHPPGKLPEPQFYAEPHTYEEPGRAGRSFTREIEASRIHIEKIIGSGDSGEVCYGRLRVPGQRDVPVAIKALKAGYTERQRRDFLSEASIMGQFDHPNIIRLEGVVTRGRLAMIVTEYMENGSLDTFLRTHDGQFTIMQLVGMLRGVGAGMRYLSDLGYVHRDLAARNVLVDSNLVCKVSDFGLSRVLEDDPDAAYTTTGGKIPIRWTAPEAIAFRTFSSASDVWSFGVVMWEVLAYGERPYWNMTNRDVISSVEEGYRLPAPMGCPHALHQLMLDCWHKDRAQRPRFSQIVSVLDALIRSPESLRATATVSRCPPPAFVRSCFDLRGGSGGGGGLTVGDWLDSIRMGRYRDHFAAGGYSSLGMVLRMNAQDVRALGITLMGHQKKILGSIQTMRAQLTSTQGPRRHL

[9] = target: 5'-AMP-activated protein kinase catalytic subunit alpha-1 (Homo sapiens, UniProt Q13131)
[10] = target: Ribosomal protein S6 kinase alpha-1 (Homo sapiens, UniProt Q15418); conditions: Compound concentration 1.0 uM
Ribosomal protein S6 kinase alpha-1, sequence (Q15418 whole entry): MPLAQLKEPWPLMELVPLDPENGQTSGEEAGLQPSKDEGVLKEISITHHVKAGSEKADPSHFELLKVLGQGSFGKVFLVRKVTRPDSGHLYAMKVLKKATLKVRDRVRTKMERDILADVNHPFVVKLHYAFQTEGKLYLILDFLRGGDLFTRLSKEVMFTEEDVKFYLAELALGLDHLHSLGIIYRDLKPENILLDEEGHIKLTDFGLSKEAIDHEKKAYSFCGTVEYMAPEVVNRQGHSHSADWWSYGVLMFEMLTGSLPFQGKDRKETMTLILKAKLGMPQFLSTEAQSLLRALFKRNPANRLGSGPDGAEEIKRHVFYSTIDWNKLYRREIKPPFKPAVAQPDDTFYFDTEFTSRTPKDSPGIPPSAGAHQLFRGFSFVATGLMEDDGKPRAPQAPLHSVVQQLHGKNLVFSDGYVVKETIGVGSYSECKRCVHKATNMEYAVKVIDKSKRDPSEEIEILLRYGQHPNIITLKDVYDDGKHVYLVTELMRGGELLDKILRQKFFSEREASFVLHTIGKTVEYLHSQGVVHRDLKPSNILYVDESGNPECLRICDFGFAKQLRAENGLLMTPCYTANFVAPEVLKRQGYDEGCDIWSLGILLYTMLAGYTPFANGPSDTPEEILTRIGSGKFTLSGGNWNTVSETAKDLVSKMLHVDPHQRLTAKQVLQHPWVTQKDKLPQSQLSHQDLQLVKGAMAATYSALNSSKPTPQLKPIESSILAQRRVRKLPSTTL

Tyrosine-protein kinase FRK (Homo sapiens), sequence (P42685 whole entry): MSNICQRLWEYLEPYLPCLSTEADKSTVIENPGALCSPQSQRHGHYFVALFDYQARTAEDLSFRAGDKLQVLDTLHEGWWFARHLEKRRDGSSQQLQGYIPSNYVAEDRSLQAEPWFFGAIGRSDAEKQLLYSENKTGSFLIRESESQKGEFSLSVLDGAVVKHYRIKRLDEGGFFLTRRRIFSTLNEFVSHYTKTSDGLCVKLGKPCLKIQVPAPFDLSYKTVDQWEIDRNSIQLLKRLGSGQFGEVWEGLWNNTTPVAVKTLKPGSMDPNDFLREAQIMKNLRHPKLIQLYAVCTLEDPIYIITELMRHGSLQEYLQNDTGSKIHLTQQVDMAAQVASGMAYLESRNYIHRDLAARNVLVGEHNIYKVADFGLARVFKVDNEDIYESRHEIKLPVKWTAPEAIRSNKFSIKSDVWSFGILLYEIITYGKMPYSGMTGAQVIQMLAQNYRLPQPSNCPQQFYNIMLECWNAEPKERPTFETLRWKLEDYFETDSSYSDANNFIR
Tyrosine-protein kinase Fgr (Homo sapiens), sequence (P09769 2-529 limits assumed): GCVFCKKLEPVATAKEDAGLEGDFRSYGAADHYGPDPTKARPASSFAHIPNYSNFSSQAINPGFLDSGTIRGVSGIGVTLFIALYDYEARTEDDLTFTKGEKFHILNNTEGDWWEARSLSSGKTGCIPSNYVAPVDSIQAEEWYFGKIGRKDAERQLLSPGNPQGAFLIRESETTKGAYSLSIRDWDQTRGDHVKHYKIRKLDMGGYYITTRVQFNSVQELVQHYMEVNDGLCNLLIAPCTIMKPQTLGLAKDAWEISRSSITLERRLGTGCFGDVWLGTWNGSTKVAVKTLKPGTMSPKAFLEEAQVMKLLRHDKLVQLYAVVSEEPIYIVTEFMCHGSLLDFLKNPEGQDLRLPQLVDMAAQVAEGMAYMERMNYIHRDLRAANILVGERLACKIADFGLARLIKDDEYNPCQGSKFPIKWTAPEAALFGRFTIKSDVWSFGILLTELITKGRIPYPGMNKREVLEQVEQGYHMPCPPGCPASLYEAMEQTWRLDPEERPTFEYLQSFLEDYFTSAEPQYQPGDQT
5'-AMP-activated protein kinase catalytic subunit alpha-1, sequence (Q13131 whole entry): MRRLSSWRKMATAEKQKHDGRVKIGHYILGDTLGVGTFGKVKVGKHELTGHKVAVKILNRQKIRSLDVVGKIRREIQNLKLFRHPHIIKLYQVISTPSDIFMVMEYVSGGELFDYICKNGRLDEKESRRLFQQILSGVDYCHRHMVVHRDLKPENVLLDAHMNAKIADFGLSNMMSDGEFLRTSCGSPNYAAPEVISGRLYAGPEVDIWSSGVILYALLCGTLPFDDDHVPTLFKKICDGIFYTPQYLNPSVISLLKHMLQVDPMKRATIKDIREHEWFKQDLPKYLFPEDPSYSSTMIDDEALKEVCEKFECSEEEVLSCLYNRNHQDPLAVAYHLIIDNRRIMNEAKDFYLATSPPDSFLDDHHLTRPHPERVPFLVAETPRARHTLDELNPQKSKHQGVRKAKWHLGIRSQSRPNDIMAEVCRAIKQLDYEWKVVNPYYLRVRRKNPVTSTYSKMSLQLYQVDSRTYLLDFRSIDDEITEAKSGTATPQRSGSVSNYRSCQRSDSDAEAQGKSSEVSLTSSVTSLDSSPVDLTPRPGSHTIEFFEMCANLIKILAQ
Non-receptor tyrosine-protein kinase TYK2 (Homo sapiens), sequence (P29597 whole entry): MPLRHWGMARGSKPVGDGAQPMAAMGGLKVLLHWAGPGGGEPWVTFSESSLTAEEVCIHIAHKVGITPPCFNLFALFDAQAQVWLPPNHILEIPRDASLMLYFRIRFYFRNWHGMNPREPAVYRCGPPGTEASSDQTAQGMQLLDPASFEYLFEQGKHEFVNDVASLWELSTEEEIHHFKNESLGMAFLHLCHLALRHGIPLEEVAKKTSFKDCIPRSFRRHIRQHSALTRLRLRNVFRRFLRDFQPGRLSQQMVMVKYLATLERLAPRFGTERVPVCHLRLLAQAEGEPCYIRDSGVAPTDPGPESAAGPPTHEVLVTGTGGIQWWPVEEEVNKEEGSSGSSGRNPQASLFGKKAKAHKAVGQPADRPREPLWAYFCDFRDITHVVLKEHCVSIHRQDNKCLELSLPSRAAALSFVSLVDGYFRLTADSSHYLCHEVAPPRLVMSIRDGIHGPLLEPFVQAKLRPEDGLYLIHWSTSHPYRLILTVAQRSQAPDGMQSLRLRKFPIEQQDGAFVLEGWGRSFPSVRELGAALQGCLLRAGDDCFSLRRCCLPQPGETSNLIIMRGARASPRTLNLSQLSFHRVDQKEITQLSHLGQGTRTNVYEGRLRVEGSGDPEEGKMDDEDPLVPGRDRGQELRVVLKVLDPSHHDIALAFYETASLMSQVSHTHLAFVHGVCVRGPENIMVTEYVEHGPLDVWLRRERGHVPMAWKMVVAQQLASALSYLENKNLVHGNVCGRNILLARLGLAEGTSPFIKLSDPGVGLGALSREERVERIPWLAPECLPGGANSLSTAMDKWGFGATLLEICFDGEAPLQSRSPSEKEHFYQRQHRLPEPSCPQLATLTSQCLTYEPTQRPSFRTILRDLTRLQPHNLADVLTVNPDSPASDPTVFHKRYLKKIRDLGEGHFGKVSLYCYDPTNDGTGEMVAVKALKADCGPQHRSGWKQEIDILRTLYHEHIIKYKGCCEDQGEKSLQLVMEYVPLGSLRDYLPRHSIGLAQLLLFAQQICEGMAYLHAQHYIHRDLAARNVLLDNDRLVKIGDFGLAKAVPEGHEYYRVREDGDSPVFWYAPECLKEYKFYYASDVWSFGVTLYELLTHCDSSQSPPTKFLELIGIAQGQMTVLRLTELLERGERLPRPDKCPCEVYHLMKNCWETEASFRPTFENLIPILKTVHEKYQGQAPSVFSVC
Serine/threonine-protein kinase PAK 6 (Homo sapiens), sequence (Q9NQU5 whole entry, looked up): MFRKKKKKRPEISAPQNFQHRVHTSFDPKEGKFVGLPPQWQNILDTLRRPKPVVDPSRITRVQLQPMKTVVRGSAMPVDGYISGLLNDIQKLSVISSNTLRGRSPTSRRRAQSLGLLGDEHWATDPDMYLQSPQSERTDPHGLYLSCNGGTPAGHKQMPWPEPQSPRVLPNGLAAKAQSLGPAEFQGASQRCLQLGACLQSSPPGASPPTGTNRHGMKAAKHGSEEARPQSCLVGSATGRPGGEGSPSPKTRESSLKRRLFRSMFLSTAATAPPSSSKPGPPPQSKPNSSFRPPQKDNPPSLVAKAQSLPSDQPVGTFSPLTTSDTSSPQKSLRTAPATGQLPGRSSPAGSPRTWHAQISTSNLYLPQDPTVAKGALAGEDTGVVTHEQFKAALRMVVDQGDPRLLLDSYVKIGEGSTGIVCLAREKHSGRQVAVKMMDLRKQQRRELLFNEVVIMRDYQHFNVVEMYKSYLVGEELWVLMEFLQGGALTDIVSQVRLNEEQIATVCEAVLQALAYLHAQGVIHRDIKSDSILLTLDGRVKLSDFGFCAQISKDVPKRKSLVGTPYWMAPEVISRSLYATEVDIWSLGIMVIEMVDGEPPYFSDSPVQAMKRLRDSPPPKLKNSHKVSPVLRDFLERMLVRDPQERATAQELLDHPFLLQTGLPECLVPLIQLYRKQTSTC
Aurora kinase B (Homo sapiens), sequence (Q96GD4 whole entry): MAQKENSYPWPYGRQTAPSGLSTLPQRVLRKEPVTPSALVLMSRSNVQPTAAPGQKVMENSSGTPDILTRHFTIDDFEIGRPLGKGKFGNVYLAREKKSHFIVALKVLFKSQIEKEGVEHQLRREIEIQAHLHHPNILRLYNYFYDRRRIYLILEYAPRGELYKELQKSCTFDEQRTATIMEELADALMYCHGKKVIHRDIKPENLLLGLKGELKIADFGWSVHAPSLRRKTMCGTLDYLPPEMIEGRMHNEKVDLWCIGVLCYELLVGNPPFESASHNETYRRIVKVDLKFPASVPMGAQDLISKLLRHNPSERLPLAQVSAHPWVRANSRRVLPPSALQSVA

CCc1ccccc1C(=O)Nc1n[nH]c2c(C)c(F)c(C3C(C#N)=C(C)N(C)C(C)=C3C#N)cc12 [BAY-3827]
% residual kinase activity [1]: 76% | Cell Proliferation IC50 (SU-DHL10): 12.5 µM | % residual kinase activity [2]: 91% | % residual kinase activity [3]: 86% | % residual kinase activity [4]: 102% | % residual kinase activity [5]: 93% | % residual kinase activity [6]: 66% | % residual kinase activity [7]: 87% | % residual kinase activity [8]: 102% | IC50 [9]: 0.01 µM | % residual kinase activity [10]: 7%
